Results on 28 compounds are retold here after patent US20260234099A1, “Endocannabinoid ligands and related analogs” (Northeastern University, priority 2023, published 2026).

Read-outs that look alike come from different tables or passages of the source. Some results are limits rather than exact numbers.

One assay has as its target CB1 receptor (rCB1) (Rattus norvegicus, UniProt P20272). In words: cAMP assay (inhibition of FSK stimulated cAMP), CB1. It counts as cell-based. As to conditions: for functional profile at CB1 (cAMP): full or partial agonist; for Emax: percentage of maximum response of standard full agonist (e.g., CP-55,940). Here is the method:
Further functional characterization of some of the disclosed compounds tested initially for “binding affinity” or for GTPγ-S binding was performed by using the cyclic adenosine monophosphate (cAMP) assay. […] A detailed description of the methods used to test compounds using the cAMP assay is given in Yingpeng, et al. J. Med. Chem. (2018) 61, 8639-8657 the content of which is hereby incorporated by reference. The EC50 values (potency of a test compound) of the functional assays may or may not be accompanied by the E(max) value in tables 1-5 (efficacy of the test compound). E(max)/efficacy is the maximum GTP stimulation or cAMP inhibition levels and is presented as the percentage of maximum response evoked by a standard CB1/CB2 full agonist (e.g., CP-55,940) for reference see the paper cited above.
In general terms: cAMP levels reflect the balance of adenylyl cyclase and phosphodiesterase activity.

The next assay addresses CB1 receptor (Rattus norvegicus, UniProt P20272). Kind of assay: CB1 receptor binding affinity (Ki). Here is the method: (§1) Some disclosed compounds were tested for CB1 and CB2 receptor binding affinity (Tables 1, 2, 3, 4, 5). As used herein “binding affinity” is represented by the Ki value. The Ki value is the affinity constant and describes the affinity of the compound for the receptor. […] A detailed description of the methods used to test “binding affinity” of compounds is given in Makriyannis, et al., US 2007/0135388 the content of which is hereby incorporated by reference.

In the next assay the target is CB2 receptor (Homo sapiens, UniProt P34972). Kind of assay: CB2 receptor binding affinity (Ki). The arrangement: CB2 receptor Ki; CB2 receptor Ki (PMSF); other: with PMSF. As to conditions: read-out: CB2 receptor Ki. How it is done: as §1
In a further assay the target is CB2 receptor (hCB2) (Homo sapiens, UniProt P34972). Kind of assay: cAMP assay (inhibition of FSK stimulated cAMP), CB2. It is filed as cell-based. As to conditions: class symbols. Here is the method: FIG. 2A is a graph providing data of the % inhibition of FSK stimulated cAMP for compound 6.1.1 for hCB2.
Further functional characterization of some of the disclosed compounds tested initially for “binding affinity” or for GTPγ-S binding was performed by using the cyclic adenosine monophosphate (cAMP) assay. Key compounds initially characterized functionally using the GTPγ-S assay were also doubly tested using the cAMP assay to unambiguously confirm their functional profiles. The functional potency of the compounds tested using the cyclase assay is also represented by the EC50 (cAMP) value and similarly the lower the EC50 (cAMP) value the higher the potency of the compound for the receptor. A detailed description of the methods used to test compounds using the cAMP assay is given in Yingpeng, et al. J. Med. Chem. (2018) 61, 8639-8657 the content of which is hereby incorporated by reference. The EC50 values (potency of a test compound) of the functional assays may or may not be accompanied by the E(max) value in tables 1-5 (efficacy of the test compound). E(max)/efficacy is the maximum GTP stimulation or cAMP inhibition levels and is presented as the percentage of maximum response evoked by a standard CB1/CB2 full agonist (e.g., CP-55,940) for reference see the paper cited above. If a test compound has an efficacy close to 100% of the standard full agonist, then the test compound is also classified as full agonist.

The mark [1] stands for this setting: with PMSF, read-out: CB1 Receptor Ki with PMSF.
The mark [2] stands for this setting: without PMSF, read-out: CB1 receptor affinity Ki.

One may read the EC50 as the concentration that produces a half-maximal response. A higher EC50 goes with a need for much substance. As a reminder, the Ki is the dissociation constant of the complex between target and ligand, obtained from inhibition or displacement. Broadly, the Emax is the size of the effect at its maximum, as opposed to the concentration needed.

Sequence of CB2 receptor (hCB2) (P34972 whole entry): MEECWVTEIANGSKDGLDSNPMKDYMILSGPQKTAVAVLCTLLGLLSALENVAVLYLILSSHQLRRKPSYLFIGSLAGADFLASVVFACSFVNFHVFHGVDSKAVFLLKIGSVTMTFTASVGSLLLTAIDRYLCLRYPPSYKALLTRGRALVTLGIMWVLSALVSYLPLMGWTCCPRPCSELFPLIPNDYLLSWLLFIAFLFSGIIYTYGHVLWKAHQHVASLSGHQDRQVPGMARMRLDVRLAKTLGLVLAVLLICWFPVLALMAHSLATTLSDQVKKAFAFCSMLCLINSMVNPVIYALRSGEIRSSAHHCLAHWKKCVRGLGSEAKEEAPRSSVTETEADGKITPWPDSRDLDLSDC
Sequence of CB1 receptor (rCB1) (P20272 whole entry): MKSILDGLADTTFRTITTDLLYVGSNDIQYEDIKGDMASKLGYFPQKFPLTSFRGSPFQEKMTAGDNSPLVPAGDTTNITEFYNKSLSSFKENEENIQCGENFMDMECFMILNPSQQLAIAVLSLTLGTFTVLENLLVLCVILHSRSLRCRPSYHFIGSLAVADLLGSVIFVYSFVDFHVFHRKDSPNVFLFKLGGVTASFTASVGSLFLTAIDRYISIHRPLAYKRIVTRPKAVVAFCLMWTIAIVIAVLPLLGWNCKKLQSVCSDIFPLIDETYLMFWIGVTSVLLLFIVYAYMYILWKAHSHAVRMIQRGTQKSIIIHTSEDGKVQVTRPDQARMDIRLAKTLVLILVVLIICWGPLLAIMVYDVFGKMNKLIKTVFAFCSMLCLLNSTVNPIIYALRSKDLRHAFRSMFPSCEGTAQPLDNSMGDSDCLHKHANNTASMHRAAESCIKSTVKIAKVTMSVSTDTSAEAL
Sequence of CB1 receptor (P20272 whole entry): as above

On to `O=C(OC(CO)CO)C1CC1/C=C\C/C=C\C/C=C\C/C=C\CCCCCO[N+](=O)[O-]` (stereo not shown) [Compound 5.8.3b, 1,3-Dihydroxypropan-2-yl-2-((1Z,4Z,7Z,10Z)-16-(nitrooxy)hexadeca-1,4,7,10-tetraen-1-yl)cyclopropane-1-carboxylate], for which the EC50 on CB1 receptor (rCB1) (class symbols) lay in the range of 10 to 200 nM.

Turning to `C[C@H](/C=C\C/C=C\C/C=C\CCCC(=O)N[C@H](C)CO)/C=C\CCCCCBr` [Compound 4.1.4, (S,5Z,8Z,11Z,14Z)-20-Bromo-N—((R)-1-hydroxypropan-2-yl)-13-methylicosa-5,8,11,14-tetraenamide], the Ki at CB1 receptor (setting [1]), at CB1 receptor (setting [2]) and at CB2 receptor was 0.01 to 10 nM in each case.

`CCCCC/C=C\C/C=C\C/C=C\C/C=C\C1CCC(C(=O)NCCO)CC1` (stereo not shown) [Compound 4.2.2f]: the Ki at CB1 receptor (setting [1]) and on CB2 receptor was 200 to 1000 nM in each case.

For `CCCCC/C=C\C/C=C\C/C=C\C/C=C\C1CC1C(=O)OC(CO)CO` (stereo not shown) [Compound 5.2.2b], the EC50 at CB2 receptor (hCB2) lay within 10 to 200 nM.

Turning to `C[C@H](/C=C\C/C=C\C/C=C\C1CC1C(=O)OC(CO)CO)/C=C\CCCCC(F)(F)F` (single isomer, unassigned) [Compound 5.11.4], the EC50 on CB1 receptor (rCB1) (class symbols) and at CB2 receptor (hCB2) was 10 to 200 nM throughout.

Take `CCCCC/C=C\C/C=C\C/C=C\C/C=C\C1CC[C@@H](C(=O)NCCO)C1` (stereo partly shown) [Compound 4.2.2e]: the Ki on CB1 receptor (setting [1]) and on CB2 receptor was 200 to 1000 nM throughout.

As to `CCCCC/C=C\C/C=C\C/C=C\C/C=C\C1(CC(=O)OC(CO)CO)CCC1` [Compound 5.2.2d], the values for the EC50 at CB1 receptor (rCB1) (class symbols) and on CB2 receptor (hCB2) were 200 to 1000 nM and above 1000 nM, respectively.

In the case of `CCCCC/C=C\[C@H](C)/C=C\C/C=C\Cc1ccccc1CCCC(=O)N[C@H](C)CO` [Compound 4.5.3, N—((R)-1-hydroxypropan-2-yl)-4-(2-((S,2Z,5Z,8Z)-7-methyltetradeca-2,5,8-trien-1-yl)phenyl)butanamide], on CB1 receptor (vs AEA, Table 5), the “binding affinity for CB1 receptor compared to endogenous AEA” value was “substantially higher binding affinities”. Besides, the Ki on CB1 receptor (setting [1]) and on CB1 receptor (setting [2]) was 0.01 to 10 nM each time.

Regarding `CCCCCc1ccccc1C/C=C\C/C=C\C/C=C\CCCC(=O)N[C@H](C)CO` [Compound 4.6.3, (5Z,8Z,11Z)—N—((R)-1-hydroxypropan-2-yl)-13-(2-pentylphenyl)trideca-5,8,11-trienamide], the Ki on CB1 receptor (setting [1]), at CB1 receptor (setting [2]) and at CB2 receptor was 10 to 200 nM in each case.

Turning to `CCCCC/C=C\[C@H](C)/C=C\C/C=C\Cc1ccccc1CCCC(=O)OC(CO)CO` [Compound 5.9.3], the EC50 on CB1 receptor (rCB1) (class symbols) and at CB2 receptor (hCB2) was above 1000 nM each time.

For the compound `CCCCC/C=C\C/C=C\C/C=C\C/C=C\C1CC1C(=O)OC(CO)CO` (stereo not shown) [Compound 5.2.2a, 1,3-Dihydroxypropan-2-yl 2-((1Z,4Z,7Z,10Z)-hexadeca-1,4,7,10-tetraen-1-yl)cyclopropane-1-carboxylate], the EC50 at CB1 receptor (rCB1) (class symbols) is 10 to 200 nM.

With `C[C@H](/C=C\C/C=C\C/C=C\CCCC(=O)N[C@H](C)CO)/C=C\CCCCCO` [Compound 4.7.2], the inhibitory constant (Ki) at CB1 receptor (setting [2]) and at CB2 receptor was 10 to 200 nM each time.

On to `C[C@H](/C=C\C/C=C\C/C=C\CCCC(=O)N[C@H](C)CO)/C=C\CCCCCOC1CCCCO1` (stereo partly shown) [Compound 4.1.3], for which the Ki on CB1 receptor (setting [1]), at CB1 receptor (setting [2]) and at CB2 receptor was above 1000 nM each time.

As for `CCCCC/C=C\[C@@H](C)/C=C\C/C=C\C/C=C\CCCC(=O)OC(CO)CO` [Compound 5.4.3d, 1,3-Dihydroxypropan-2-yl (R,5Z,8Z,11Z,14Z)-13-methylicosa-5,8,11,14-tetraenoate], the “functional profile at CB1 (cAMP)” value on CB1 receptor (rCB1) is “full agonist”. Moreover, the results for the EC50 at CB1 receptor (rCB1) (numeric) and on CB2 receptor (hCB2) were 4.1 nM and 0.01 to 10 nM, respectively. The compound also returned an Emax at CB1 receptor (rCB1) of 95%.

In the case of `CCCCC/C=C\C/C=C\C/C=C\C/C=C\C1CCC(C(=O)OC(CO)CO)CC1` (stereo not shown) [Compound 5.2.2f], the concentration for a half-maximal effect (EC50) on CB1 receptor (rCB1) (class symbols) and at CB2 receptor (hCB2) was above 1000 nM in each case.

On to `CCCCC/C=C\[C@H](C)/C=C\C/C=C\C/C=C\CCCOC(=O)C(C)(CO)CO` [Compound 6.2.2, (S,4Z,7Z,10Z,13Z)-12-Methylnonadeca-4,7,10,13-tetraen-1-yl-3-hydroxy-2(hydroxymethyl)-2-methylpropanoate], for which the concentration for a half-maximal effect (EC50) on CB1 receptor (rCB1) (class symbols) and on CB2 receptor (hCB2) was 10 to 200 nM each time.

On to `CCCCC/C=C\C/C=C\C/C=C\C/C=C\C1CC(C(=O)OC(CO)CO)C1` (stereo not shown) [Compound 5.2.2c], for which the EC50 on CB1 receptor (rCB1) (class symbols) and on CB2 receptor (hCB2) was above 1000 nM in each case.

Turning to `C[C@H](/C=C\C/C=C\C/C=C\[C@H]1C[C@@H]1C(=O)OC(CO)CO)/C=C\CCCCC(F)(F)F` [Compound 5.12.2], the EC50 on CB1 receptor (rCB1) (class symbols) is above 1000 nM; on CB2 receptor (hCB2), 10 to 200 nM.

`C[C@H](/C=C\C/C=C\C/C=C\CCCC(=O)NC(CO)CO)/C=C\CCCCCOC1CCCCO1` (stereo partly shown) [Compound 5.1.6c]: the EC50 on CB1 receptor (rCB1) (class symbols) and on CB2 receptor (hCB2) was above 1000 nM throughout.

Take `C[C@H](/C=C\C/C=C\C/C=C\[C@@H]1C[C@H]1C(=O)OC(CO)CO)/C=C\CCCCC(F)(F)F` [Compound 5.12.1]: the EC50 at CB1 receptor (rCB1) (class symbols) and on CB2 receptor (hCB2) was 10 to 200 nM each time.

With `C[C@H](/C=C\C/C=C\C/C=C\CCCC(=O)NC(CO)CO)/C=C\CCCCCO[N+](=O)[O-]` [Compound 5.1.6b], the results for the EC50 at CB1 receptor (rCB1) (class symbols) and on CB2 receptor (hCB2) were 0.01 to 10 nM and 10 to 200 nM, respectively.

`C[C@H](/C=C\C/C=C\C/C=C\C1CC1C(=O)OC(CO)CO)/C=C\CCCCCO[N+](=O)[O-]` (stereo partly drawn) [Compound 5.7.3b, 1,3-dihydroxypropan-2-yl-2-((S,1Z,4Z,7Z,10Z)-9-methyl-16-(nitrooxy)hexadeca-1,4,7,10-tetraen-1-yl)cyclopropane-1-carboxylate] came in with an EC50 on CB1 receptor (rCB1) (class symbols) of 0.01 to 10 nM.

`N#CCCCCC/C=C\C/C=C\C/C=C\C/C=C\C1CC1C(=O)OC(CO)CO` (stereo not shown) [Compound 5.8.3a, 1,3-Dihydroxypropan-2-yl-2-((1Z,4Z,7Z,10Z)-16-cyanohexadeca-1,4,7,10-tetraen-1-yl)cyclopropane-1-carboxylate]: the EC50 on CB1 receptor (rCB1) (class symbols) lay within 10 to 200 nM.

On to `C[C@H](/C=C\C/C=C\C/C=C\C1CC1C(=O)OC(CO)CO)/C=C\CCCCC(F)(F)F` (single isomer, unassigned) [Compound 5.11.8], for which the figures for the EC50 on CB1 receptor (rCB1) (class symbols) and on CB2 receptor (hCB2) were 0.01 to 10 nM and 10 to 200 nM, respectively.

For `CCCCC/C=C\C/C=C\C/C=C\C/C=C\C1(CC(=O)NCCO)CCC1` [Compound 4.2.2d], on CB1 receptor (setting [1]), the Ki lay in the range of 200 to 1000 nM.

In the case of `C[C@H](/C=C\C/C=C\C/C=C\[C@H]1C[C@H]1C(=O)OC(CO)CO)/C=C\CCCCC(F)(F)F` [Compound 5.12.3, 1,3-dihydroxypropan-2-yl (1R,2R)-2-((S,1Z,4Z,7Z,10Z)-16,16,16-trifluoro-9-methylhexadeca-1,4,7,10-tetraen-1-yl)cyclopropane-1-carboxylate], the EC50 on CB1 receptor (rCB1) (class symbols) was 0.01 to 10 nM; at CB2 receptor (hCB2) it was 10 to 200 nM.

With `CCCCC/C=C\[C@H](C)/C=C\C/C=C\C/C=C\CCCC(=O)OC(CO)CO` [Compound 5.4.3c, 1,3-Dihydroxypropan-2-yl (S,5Z,8Z,11Z,14Z)-13-methylicosa-5,8,11,14-tetraenoate], the “functional profile at CB1 (cAMP)” value on CB1 receptor (rCB1) is “full agonist”. In addition, the values for the EC50 on CB1 receptor (rCB1) (numeric) and at CB2 receptor (hCB2) were 10.3 nM and 0.01 to 10 nM, respectively. The same compound yielded an Emax at CB1 receptor (rCB1) of 99%.

In the case of `C[C@H](/C=C\C/C=C\C/C=C\[C@@H]1C[C@@H]1C(=O)OC(CO)CO)/C=C\CCCCC(F)(F)F` [Compound 5.12.4, 1,3-dihydroxypropan-2-yl (1S,2S)-2-((S,1Z,4Z,7Z,10Z)-16,16,16-trifluoro-9-methylhexadeca-1,4,7,10-tetraen-1-yl)cyclopropane-1-carboxylate], the EC50 at CB1 receptor (rCB1) (class symbols) and on CB2 receptor (hCB2) was 10 to 200 nM each time.
